# Laboratory results as given in US20240041877A1, “DOSAGE REGIME AND METHOD FOR TREATING PULMONARY ARTERIAL HYPERTENSION” (Altavant Sciences GmbH, priority 2019, published 2024).
# Experiment: Part 2 (MAD): plasma pharmacokinetics after BID oral KAR5585 for 14 days (incl. accumulation ratios and dose proportionality)
# [1] = 200 mg/dose Fed Cohort 3, Day 1 PM, Geo. Mean
# [2] = 200 mg/dose Fed Cohort 3, Day 1 PM, Mean
# [3] = 200 mg/dose Fed Cohort 3, Day 7 AM, Geo. Mean
# [4] = 200 mg/dose Fed Cohort 3, Day 7 AM, Mean
# [5] = 200 mg/dose Fed Cohort 3, Day 7 PM, Geo. Mean
# [6] = 200 mg/dose Fed Cohort 3, Day 7 PM, Mean
# [7] = 200 mg/dose Fed Cohort 3, Day 14, Geo. Mean
# [8] = 200 mg/dose Fed Cohort 3, Day 14, Mean
# [9] = 400 mg/dose Fasted Cohort 4, Day 1 AM, Geo. Mean
# [10] = 400 mg/dose Fasted Cohort 4, Day 1 AM, Mean
# [11] = 400 mg/dose Fasted Cohort 4, Day 1 PM, Geo. Mean
# [12] = 400 mg/dose Fasted Cohort 4, Day 1 PM, Mean
# [13] = 400 mg/dose Fasted Cohort 4, Day 7 AM, Geo. Mean
# [14] = 400 mg/dose Fasted Cohort 4, Day 7 AM, Mean
# [15] = 400 mg/dose Fasted Cohort 4, Day 7 PM, Geo. Mean
# [16] = 400 mg/dose Fasted Cohort 4, Day 7 PM, Mean
# [17] = 400 mg/dose Fasted Cohort 4, Day 14, Geo. Mean
# [18] = 400 mg/dose Fasted Cohort 4, Day 14, Mean
# [19] = power model, PK Day 1 (AM), 100 to 400 mg KAR5585 repeat oral doses, fed
# [20] = power model, PK Day 7 (AM), 100 to 400 mg KAR5585 repeat oral doses, fed
# [21] = power model, PK Day 14 (AM), 100 to 400 mg KAR5585 repeat oral doses, fed
# Excerpt: Food effect was to be evaluated in Part 1, Period 2.
# Pharmacokinetic data were to be summarized descriptively.
compound,measurement,setting,value
"CCOC(=O)[C@@H]1CC2(CCN(c3cc(O[C@H](c4ccc(Cl)cc4-c4ccccc4)C(F)(F)F)nc(N)n3)CC2)CN1 [KAR5585, (S)-ethyl 8-(2-amino-6-((R)-1-(5-chloro-[1,1′-biphenyl]-2-yl)-2,2,2-trifluoroethoxy)pyrimidin-4-yl)-2,8-diazaspiro[4.5]decane-3-carboxylate]",C12,[1],9.57 ng/mL
same,CL/F,[1],493 L/h
same,Cmax,[1],85.4 ng/mL
same,Cmax/D,[1],0.427 (ng/mL)/mg
same,t1/2,[1],4.24 h
same,AUC0-12,[2],344 ng·h/mL
same,AUC0-24,[2],601 ng·h/mL
same,AUC0-24/D,[2],1.5 (hr*ng/mL)/mg
same,AUC0-∞,[2],417 ng·h/mL
same,C12,[2],9.92 ng/mL
same,CL/F,[2],507 L/h
same,Cmax,[2],90.9 ng/mL
same,Cmax/D,[2],0.455 (ng/mL)/mg
same,t1/2,[2],4.34 h
same,AUC0-12,[3],217 ng·h/mL
same,AUC0-∞,[3],256 ng·h/mL
same,C12,[3],7.36 ng/mL
same,CL/F,[3],924 L/h
same,Cmax,[3],45.6 ng/mL
same,Cmax/D,[3],0.228 (ng/mL)/mg
same,t1/2,[3],4.21 h
same,AUC0-12,[4],230 ng·h/mL
same,C12,[4],7.71 ng/mL
same,CL/F,[4],978 L/h
same,Cmax,[4],48.8 ng/mL
same,Cmax/D,[4],0.244 (ng/mL)/mg
same,t1/2,[4],4.30 h
same,Tmax,"200 mg/dose Fed Cohort 3, Day 7 AM, Median",3.0 h
same,AUC0-12,[5],201 ng·h/mL
same,AUC0-24,[5],414 ng·h/mL
same,AUC0-24/D,[5],1.03 (hr*ng/mL)/mg
same,AUC0-∞,[5],289 ng·h/mL
same,C12,[5],11.3 ng/mL
same,CL/F,[5],869 L/h
same,Cmax,[5],39.1 ng/mL
same,Cmax/D,[5],0.195 (ng/mL)/mg
same,t1/2,[5],5.58 h
same,AUC0-12,[6],207 ng·h/mL
same,AUC0-24,[6],431 ng·h/mL
same,AUC0-24/D,[6],1.08 (hr*ng/mL)/mg
same,AUC0-∞,[6],290 ng·h/mL
same,C12,[6],12.2 ng/mL
same,CL/F,[6],890 L/h
same,Cmax/D,[6],0.213 (ng/mL)/mg
same,t1/2,[6],6.20 h
same,AUC0-24,[7],199 ng·h/mL
same,AUC0-24/D,[7],0.993 (hr*ng/mL)/mg
same,C24,[7],BLQ
same,CL/F,[7],1130 L/h
same,Cmax/D,[7],0.217 (ng/mL)/mg
same,AUC0-12,[8],188 ng·h/mL
same,AUC0-24,[8],212 ng·h/mL
same,AUC0-24/D,[8],1.06 (hr*ng/mL)/mg
same,AUC0-∞,[8],216 ng·h/mL
same,C24,[8],BLQ
same,CL/F,[8],1200 L/h
same,Cmax,[8],48.8 ng/mL
same,Cmax/D,[8],0.244 (ng/mL)/mg
same,"Mean CL/F, Day 1","400 mg KAR5585 BID, fed",1730 L/h
same,"Mean steady-state CL/F, Day 14","400 mg KAR5585 BID, fed",1140 L/h
same,AUC0-12,[9],253 ng·h/mL
same,AUC0-∞,[9],272 ng·h/mL
same,C12,[9],7.44 ng/mL
same,CL/F,[9],1470 L/h
same,Cmax,[9],74.0 ng/mL
same,Cmax/D,[9],0.185 (ng/mL)/mg
same,t1/2,[9],3.00 h
same,AUC0-12,[10],281 ng·h/mL
same,C12,[10],7.49 ng/mL
same,CL/F,[10],1730 L/h
same,Cmax,[10],81.8 ng/mL
same,Cmax/D,[10],0.205 (ng/mL)/mg
same,AUC0-12,[11],501 ng·h/mL
same,AUC0-24/D,[11],0.950 (hr*ng/mL)/mg
same,AUC0-∞,[11],633 ng·h/mL
same,C12,[11],16.6 ng/mL
same,CL/F,[11],632 L/h
same,Cmax/D,[11],0.276 (ng/mL)/mg
same,t1/2,[11],4.18 h
same,AUC0-12,[12],528 ng·h/mL
same,AUC0-24/D,[12],1.01 (hr*ng/mL)/mg
same,AUC0-∞,[12],657 ng·h/mL
same,C12,[12],17.1 ng/mL
same,CL/F,[12],662 L/h
same,Cmax,[12],124 ng/mL
same,Cmax/D,[12],0.310 (ng/mL)/mg
same,t1/2,[12],4.33 h
same,AUC0-12,[13],473 ng·h/mL
same,AUC0-∞,[13],577 ng·h/mL
same,C12,[13],15.1 ng/mL
same,CL/F,[13],846 L/h
same,Cmax,[13],93.3 ng/mL
same,Cmax/D,[13],0.228 (ng/mL)/mg
same,t1/2,[13],4.65 h
same,AUC0-12,[14],483 ng·h/mL
same,AUC0-∞,[14],588 ng·h/mL
same,C12,[14],15.5 ng/mL
same,CL/F,[14],865 L/h
same,Cmax,[14],95.9 ng/mL
same,Cmax/D,[14],0.240 (ng/mL)/mg
same,t1/2,[14],4.90 h
same,AUC0-12,[15],394 ng·h/mL
same,AUC0-24/D,[15],1.09 (hr*ng/mL)/mg
same,AUC0-∞,[15],534 ng·h/mL
same,C12,[15],20.1 ng/mL
same,CL/F,[15],954 L/h
same,Cmax,[15],63.4 ng/mL
same,Cmax/D,[15],0.158 (ng/mL)/mg
same,t1/2,[15],4.92 h
same,AUC0-12,[16],404 ng·h/mL
same,AUC0-24,[16],887 ng·h/mL
same,AUC0-24/D,[16],1.11 (hr*ng/mL)/mg
same,AUC0-∞,[16],538 ng·h/mL
same,C12,[16],20.8 ng/mL
same,CL/F,[16],969 L/h
same,Cmax/D,[16],0.172 (ng/mL)/mg
same,t1/2,[16],4.93 h
same,AUC0-12,[17],359 ng·h/mL
same,AUC0-24,[17],433 ng·h/mL
same,AUC0-24/D,[17],1.08 (hr*ng/mL)/mg
same,AUC0-∞,[17],465 ng·h/mL
same,C12,[17],11.0 ng/mL
same,CL/F,[17],1110 L/h
same,Cmax,[17],85.3 ng/mL
same,Cmax/D,[17],0.213 (ng/mL)/mg
same,t1/2,[17],6.08 h
same,AUC0-12,[18],366 ng·h/mL
same,AUC0-24,[18],444 ng·h/mL
same,AUC0-24/D,[18],1.11 (hr*ng/mL)/mg
same,CL/F,[18],1140 L/h
same,Cmax/D,[18],0.222 (ng/mL)/mg
same,Tmax,"400 mg/dose Fasted Cohort 4, Day 14, Median",1.5 h
same,steady-state plasma levels achieved by,BID oral KAR5585 for 14 days,≤ 7 days
same,"Dose proportionality analysis, AUC0-12: Intercept estimate",[19],0.969
same,"Dose proportionality analysis, AUC0-inf: Intercept estimate",[19],0.817
same,"Dose proportionality analysis, Cmax: Intercept estimate",[19],0.198
same,"Dose proportionality analysis, AUC0-12: Intercept estimate",[20],1.51
same,"Dose proportionality analysis, Cmax: Intercept estimate",[20],0.688
same,"Dose proportionality analysis, AUC0-12: Intercept estimate",[21],2.37
same,"Dose proportionality analysis, Cmax: Intercept estimate",[21],0.705
